In patent US5374720A, “2-(substituted pyrrolidinylthio)carbapenem derivatives” (Banyu Pharmaceutical Co., Ltd., priority 1990, dated 1994):
Converted amounts (≈) assume the structure as drawn. Like-named read-outs stand apart in the source and are kept apart here.

Key:
DHP-I = DHP-I susceptibility (method by Kropp et al.); assay type: in vitro ADME
Excerpt: The DHP-I susceptibility was quantitatively analyzed by the method by Kropp et al., Antimicrob. Agents Chemother., vol. 22, p. 62-70 (1982), whereby the smaller the numerical value representing the ratio to imipenem (=1.0), the higher the stability. The antibacterial potency and the DHP-I susceptibility of the compounds of the present invention were compared with imipenem and meropenem.

Meth-R S. aureus = assay: disc diffusion test, relative antibacterial potency to thienamycin; assay type: cell-based; settings: ratio to thienamycin (=1.0), larger = higher activity
Protocol: (§1) The antibacterial activities of the compounds of the present invention described in the Examples, as representative examples of the compound of the present invention, were measured by a disc diffusion test by the method of Bauer et al. (Amer. J. Clin. Pathol., vol. 45, p. 493 (1966)). Thienamycin or imipenem was used as the internal standard.
(§2) MIC of each test compound was calculated from the diameter of the inhibition ring formed by the disc containing the test compound by using the calculation formula reported by Humphrey and Lightbown (J. Gen. Microbiol., vol. 7, p. 129 (1952)). For each microorganism, a geometrical average of MIC was obtained, and the activity ratio to thienamycin was calculated.
(§3) The antibacterial activities are represented by the ratio to thienamycin (=1.0), whereby the larger the numerical value, the higher the activities.

THM-R P. aeruginosa = assay: as above; assay type: cell-based; settings: ratio to thienamycin (=1.0), larger = higher activity
Protocol: as §1, §2, §3

P. aeruginosa MB5002 = assay: in vitro antibacterial activity, agar plate dilution method (MIC); assay type: cell-based; settings: for MIC: Pseudomonas aeruginosa, MB5002, 16 h, read-out: Minimum Inhibitory Concentration (MIC)
Protocol: (§4) One platinum loopful of each test microorganism incubated overnight in Mueller Hinton broth, was inoculated to Mueller Hinton agar (inoculum size: 10^6 CFU/ml). Such culture media contained antibacterial agents in various concentrations. After incubation at 37° C. for 16 hours, the minimum inhibitory concentrations (MIC: μg/ml) were measured.

P. aeruginosa AKR17 = assay: as above; assay type: cell-based; settings: for MIC: Pseudomonas aeruginosa, AKR17, 16 h, read-out: Minimum Inhibitory Concentration (MIC)
Protocol: as §4

P. aeruginosa MB5000 = assay: as above; assay type: cell-based; settings: for MIC: Pseudomonas aeruginosa, MB5000, 16 h, read-out: Minimum Inhibitory Concentration (MIC)
Protocol: as §4

[1] = tested on: gram positive bacteria and gram negative bacteria; settings: background; cited from earlier work
[2] = due to the decomposition products; cited from earlier work
[3] = tested on: DHP-I in the human kidney; settings: background; cited from earlier work
[4] = background, cited from earlier work
β-lactamase = settings: background; cited from earlier work
[5] = tested on: highly methicillin resistant Staphylococcus aureus which is resistant to imipenem and imipenem resistant Pseudomonas aeruqinosa; settings: background; cited from earlier work
[6] = tested on: renal dehydropeptidase I (DHP-I); settings: background; cited from earlier work
[7] = tested on: highly methicillin resistant Staphylococcus aureus; settings: background; cited from earlier work
[8] = background; cited from earlier work
[9] = ratio to imipenem (=1.0), smaller = higher stability
[10] = P. aeruginosa MB5002, Mueller Hinton agar, 10^6 CFU/ml, 37° C., 16 hours
[11] = P. aeruginosa AKR17 (lactamase producing microorganism), Mueller Hinton agar, 10^6 CFU/ml, 37° C., 16 hours
[12] = P. aeruginosa MB5000, Mueller Hinton agar, 10^6 CFU/ml, 37° C., 16 hours

Compound	DHP-I susceptibility (DHP-I; [9])	Relative antibacterial potency to thienamycin (Meth-R S. aureus)	Relative antibacterial potency to thienamycin (THM-R P. aeruginosa)	MIC (P. aeruginosa MB5002; [10]) [µg/mL]	MIC (P. aeruginosa AKR17; [11]) [µg/mL]	MIC (P. aeruginosa MB5000; [12]) [µg/mL]	further results
C[C@@H](O)[C@H]1C(=O)N2C(C(=O)O)=C(S[C@@H]3CN[C@H](C4CCNC4)C3)[C@H](C)[C@H]12 (single isomer, unassigned) [Example 11 Diastereomer A]	< 0.05	15.2	12.7	0.78 (≈ 2.04 µM)	0.78 (≈ 2.04 µM)	0.1 (≈ 0.262 µM)	
C[C@@H](O)[C@H]1C(=O)N2C(C(=O)O)=C(S[C@@H]3CN[C@H](C4CCNC4)C3)[C@H](C)[C@H]12 (single isomer, unassigned) [Example 11 Diastereomer B]	< 0.05	12.3	11.5				Minimum Inhibitory Concentration (MIC) (P. aeruginosa MB5002; [10]): 1.56 µg/mL; Minimum Inhibitory Concentration (MIC) (P. aeruginosa AKR17; [11]): 1.56 µg/mL; Minimum Inhibitory Concentration (MIC) (P. aeruginosa MB5000; [12]): 0.2 µg/mL
C[C@@H](O)[C@H]1C(=O)N2C(C(=O)O)=C(S[C@@H]3CN[C@H](C4CCN(C)C4)C3)[C@H](C)[C@H]12 (single isomer, unassigned) [Example 12 Diastereomer A]				1.56 (≈ 3.94 µM)	1.56 (≈ 3.94 µM)		
C[C@@H](O)[C@H]1C(=O)N2C(C(=O)[O-])=C(S[C@@H]3CN[C@H](C4CC[N+](C)(C)C4)C3)[C@H](C)[C@H]12 (single isomer, unassigned) [Example 13 Diastereomer A]				0.78 (≈ 1.9 µM)	1.56 (≈ 3.81 µM)	0.2 (≈ 0.488 µM)	
C[C@@H](O)[C@H]1C(=O)N2C(C(=O)[O-])=C(S[C@@H]3CN[C@H](C4CC[N+](C)(C)C4)C3)[C@H](C)[C@H]12 (single isomer, unassigned) [Example 13]	< 0.05		11.5				
C[C@@H](O)[C@H]1C(=O)N2C(C(=O)O)=C(S[C@@H]3CN[C@H](CC4CN[C@H](C(N)=O)C4)C3)[C@H](C)[C@H]12 (stereo partly drawn) [Example 32, (1R, 5S,6S)-2-[(2R,4S)-2-[(2S)-2-carbamoylpyrrolidin-4-ylmethyl]pyrrolidin-4-ylthio]-6-[(R)-1-hydroxyethyl]-1-methyl-1-carbapen-2-em-3-carboxylic acid]	< 0.05		19.5				
C[C@@H](O)[C@H]1C(=O)N2C(C(=O)O)=C(S[C@@H]3CN[C@H](CC4CN[C@H](C(=O)N(C)C)C4)C3)[C@H](C)[C@H]12 (stereo partly drawn) [Example 34, (1R,5S,6S)-6-[(R)-1-hydroxyethyl]-1-methyl-2-[(2R,4S)-2-[(2S)-2-(dimethylcarbamoyl)pyrrolidin-4-ylmethyl]pyrrolidin-4-ylthio]-1-carbapen-2-em-3-carboxylic acid]	0.07	22.7	21.6				
C[C@@H](O)[C@H]1C(=O)N2C(C(=O)O)=C(S[C@@H]3CN[C@H](C4CCNCC4)C3)[C@H](C)[C@H]12 [Example 43, (1R,5S,6S)-6-[(R)-1-hydroxyethyl]-1-methyl-2-[(2S,4S)-2-(piperidin-4-yl)pyrrolidin-4-ylthio]-1-carbapen-2-em-3-carboxylic acid]				0.39 (≈ 0.986 µM)	1.56 (≈ 3.94 µM)	0.1 (≈ 0.253 µM)	
C[C@@H](O)[C@H]1C(=O)N2C(C(=O)O)=C(S[C@@H]3CN[C@H](C4CCN(C)CC4)C3)[C@H](C)[C@H]12 [Example 49]	0.10	13.6	13.8	0.78 (≈ 1.9 µM)	1.56 (≈ 3.81 µM)	0.2 (≈ 0.488 µM)	
C[C@@H](O)[C@H]1C(=O)N2C(C(=O)O)=C(SCCN=CN)C[C@H]12 [Imipenem, (5R,6S,8R)-3-[[2-(formimidoylamino)ethyl]thio]-6-(1-hydroxyethyl)-7-oxo-1-azabicyclo[3.2.0]hept-2-en-2-carboxylic acid monohydrate, reference compound]	1.0	2.57	2.0				antibacterial activities [1]: equal or higher level than thienamycin against various types of bacteria; toxicity against the kidney [2]: presents toxicity against the kidney due to the decomposition products; decomposition by DHP-I in the human kidney [3]: likely to be decomposed by DHP-I in the human kidney; stability in the solid form or in an aqueous solution ([4]; compared with thienamycin): remarkably improved over thienamycin; β-lactamase resistance (β-lactamase): has β-lactamase resistance; treating effects against resistant bacteria [5]: does not show adequate treating effects against these resistant bacteria; MIC (P. aeruginosa MB5002): 3.13 µg/mL; MIC (P. aeruginosa AKR17): 6.25 µg/mL; MIC (P. aeruginosa MB5000): 1.56 µg/mL
C[C@@H](O)[C@H]1C(=O)N2C(C(=O)O)=C(S[C@@H]3CN[C@H](C(=O)N(C)C)C3)[C@H](C)[C@H]12 [Meropenem, (4R,5S,6S,8R,2'S,4'S)-6-(1-hydroxyethyl)-4-methyl-3-[2-(N,N-dimethylaminocarbonyl)-pyrrolidin-4-ylthio]-7-oxo-1-azabicyclo[3.2.0]hept-2-en-2-carboxylic acid, reference compound]		3.22	6.9	6.25 (≈ 16.3 µM)	3.13 (≈ 8.16 µM)	0.39 (≈ 1.02 µM)	decomposition by / stability against DHP-I [6]: substantially improved; DHP-I susceptibility (DHP-I): 0.12; antibacterial activities against highly methicillin resistant Staphylococcus aureus [7]: not adequate
C[C@@H](O)[C@H]1C(=O)N2C(C(=O)O)=C(SCCN)C[C@H]12 [Thienamycin, thienamycin]							recovery rate in the urine [8]: low; antibacterial activities [1]: strong antibacterial activities over a wide range against gram positive bacteria and gram negative bacteria; decomposition by / stability against DHP-I [6]: likely to be decomposed by a certain enzyme in vivo such as renal dehydropeptidase I; decomposition by DHP-I in the human kidney [3]: likely to be decomposed by DHP-I in the human kidney; chemical stability [4]: chemically unstable
